Assay results: patent publication US20040200144A1, “Plant growth regulator and a method of producing the regulator” (Dainichiseika Color & Chemicals Mfg. Co., Ltd., priority 2003, published 2004)

Key:
Type in all cases: in vivo
[1] = system: cabbage young plants; assay: Dwarfing test of cabbage young plant; settings: for Plant Height / Dwarfing Rate: 5 ml per cell on 4th day, measured 22nd day; for Dwarfing Rate: vs comparative group
Protocol: Dwarfing rate (%)=[(the plant height of the comparative group)−(the plant height of an addition group)/the plant height of the comparative group]×100
18.4 g of potassium hydroxide was dissolved in 400 ml of distilled water at 20° C., 50 g of cinnamic acid was added to the potassium hydroxide solution and dissolved by stirring, the resultant solution was diluted with distilled water until the total volume of solution was 500 ml, and thus 10% cinnamic acid aqueous solution (pH 8.8) was prepared. The aqueous solution was further diluted with distilled water 100 times or 33.3 times, and 0.1% cinnamic acid aqueous solution and 0.3% cinnamic acid aqueous solution were prepared, respectively.
Nursery soil for house use was filled into the same polyethylene joint pot as described above, water was sufficiently given to the soil, and seeds of cabbage were sowed. After seeding, the pot was placed in the same greenhouse as described above to sprout. Subsequently, on the 4th day, the cinnamic acid aqueous solutions were added to the nursery soil in the joint pot. Among 36 cells, 12 cells were prepared as a 0.1% cinnamic acid aqueous solution addition group, and 5 ml of the 0.1% cinnamic acid aqueous solution in Example 3 was added to the nursery soil of each cell. Another 12 cells were prepared as 0.3% cinnamic acid aqueous solution addition group, and 5 ml of the 0.3% cinnamic acid aqueous solution in Example 3 was added to the nursery soil of each cell. Remaining 12 cells were prepared as a comparative group in which 5 ml of water is added to each cell, instead of the cinnamic acid aqueous solution. Subsequently, the cultivation of cabbage young plants in each group was continued under general conditions. On the 22nd day, the heights of young plants in each group were measured, the dwarfing rate (%) was calculated, and the dwarfing effect of cinnamic acid aqueous solution on cabbage young plants was examined.

[2] = system: eggplant young plants; assay: Dwarfing test of eggplant young plant; settings: for Plant Height / Dwarfing Rate: 5 ml per cell on 7th day, measured 25th day; for Dwarfing Rate: vs comparative group
Protocol: After seeding, the pot was placed in the same greenhouse as described above to sprout. Subsequently, on the 5th day, the cinnamic aqueous acid solutions were added to the nursery soil in the joint pots. One of the joint pots (24 cells) was prepared as a 0.05% cinnamic acid aqueous solution addition group, and 5 ml of the 0.05% cinnamic acid aqueous solution was added to the nursery soil of each cell. Another one of the join pots was prepared as a 0.2% cinnamic acid aqueous solution addition group, and 5 ml of the 0.2% cinnamic acid aqueous solution was added to the nursery soil of each cell. […] Subsequently, the cultivation of carrot young plants in each group was continued under general conditions. On the 27th day, the heights of young plants in each group were measured, the dwarfing rate (%) was calculated, and the dwarfing effect of cinnamic acid aqueous solution on carrot young plants was examined. From the results in Table 5, it became evident that the 0.05% and 0.2% cinnamic acid aqueous solutions are effective in dwarfing carrot young plants. In the same way as in Example 5 except that seeds of cauliflower were sowed, the cinnamic acid solutions were added to the nursery soil in the joint pot on the 4th day, and that heights of young plants in each group were measured on the 20th day, the dwarfing effect of cinnamic acid aqueous solution on cauliflower young plants was examined. From the results in Table 12, it became evident that the cinnamic acid aqueous solutions are effective in dwarfing cauliflower young plants. In the same way as in Example 12 except that seeds of tomato were sowed, and that the cinnamic acid solutions were added to the nursery soil of the joint pot on the 7th day, the dwarfing effect of cinnamic acid aqueous solution on tomato young plants was examined. From the results in Table 17, it became evident that the cinnamic acid aqueous solutions are effective in dwarfing tomato young plants. In the same way as in Example 17 except that seeds of eggplant were sowed, and that plant heights were measured on the 25th day, the dwarfing effect of cinnamic acid aqueous solution on eggplant young plants was examined. From the results in Table 19, it became evident that the cinnamic acid aqueous solutions are effective in dwarfing eggplant young plants.

[3] = system: hydrangea young plants; assay: Dwarfing test of hydrangea young plant; settings: for Plant Height / Dwarfing Rate: 100 ml per pot on 42nd day, measured 72nd day; for Dwarfing Rate: vs comparative group
Protocol: Dwarfing rate (%)=[(the plant height of the comparative group)−(the plant height of an addition group)/the plant height of the comparative group]×100 […] A cutting of a fresh shoot of hydrangea was planted in the soil of each pot (diameter of 10.5 cm and depth of 8.5 cm) and cultivated continuously after the cuttage. On the 42nd day, top pinching was performed, a young plant was adjusted to have a height of 8 cm and four leaves and planted and fixed in a pot (diameter of 14.5 cm and depth of 14.5 cm) At this point, 100 ml of 0.2% or 0.4% cinnamic acid aqueous solution prepared as described above was added to the nursery soil of 8 pots, and thus 0.2% cinnamic acid aqueous solution addition group and 0.4% cinnamic acid aqueous solution addition group were prepared. Further, 8 pots were prepared as a comparative group on which general watering was performed. The cultivation of young plants of each group was continued. On the 72nd day, heights of young plants in each group were measured, the dwarfing rate (%) was calculated, and the dwarfing effect of cinnamic acid aqueous solution on hydrangea was examined. From the results in Table 26, it became evident that the cinnamic acid solutions are effective in dwarfing hydrangea young plants.

SMILES: O=C(O)C=Cc1ccccc1 [cinnamic acid]
- Plant Height ([1]; 0.1% aqueous solution): 7.9 cm
- Dwarfing Rate ([1]; 0.1% aqueous solution): 14.1%
- Plant Height ([1]; 0.3% aqueous solution): 6.1 cm
- Dwarfing Rate ([1]; 0.3% aqueous solution): 33.7%
- dwarfing effect ([1]; cabbage young plants, 0.1% and 0.3% aqueous solutions): effective
- Plant Height ([2]; 0.05% aqueous solution): 2.9 cm
- Dwarfing Rate ([2]; 0.05% aqueous solution): 12.1%
- Plant Height ([2]; 0.2% aqueous solution): 2.3 cm
- Dwarfing Rate ([2]; 0.2% aqueous solution): 30.3%
- dwarfing effect ([2]; eggplant young plants, 0.05% and 0.2% aqueous solutions): effective
- Plant Height ([3]; 0.2% aqueous solution): 15.1 cm
- Dwarfing Rate ([3]; 0.2% aqueous solution): 2.6%
- Plant Height ([3]; 0.4% aqueous solution): 11.7 cm
- Dwarfing Rate ([3]; 0.4% aqueous solution): 24.5%
- dwarfing effect ([3]; hydrangea young plants, 0.2% and 0.4% aqueous solutions): effective
